Laboratory results from paper PMC8345109, “Optimization of New Catalytic Topoisomerase II Inhibitors as an Anti-Cancer Therapy” (Cancers, 2021).

What was measured:
[1] = target: T1, human TOP2A(431-1193) (Homo sapiens, UniProt P11388); assay: Fluorescence polarization (FP) assay of TOP2A-DNA interaction; assay type: binding; conditions: 500 nM protein, 0.01-200 µM compound
T1 construct: 6xHis (N); made in house; host or cells: E. coli BL21 (DE3)
Description: Fluorescent polarization assay was performed in Corning® Low Volume 384-well Black Flat Bottom microplate. […] Triplicate reactions were transferred onto the microplate and incubated at room temperature for 20 min. Fluorescence polarization (FP) measurements were taken by Tecan Infinite F500 with the excitation wavelength of 485 nm and emission wavelength of 535 nm.
(§1) (A) EMSA was performed by purified full-length TOP2A or TOP2B proteins at a contraction of 300 nM with IRDay700 labeled 5ZRF DNA oligo at a concentration of 100 nM in the presence of −/+200 µM of ICRF193, T60, T637, and T638. […] Reactions were subjected to fluorescence […], which were detected by using the Multimode Microplate Reader (Infinite F500). (D) DNA cleavage assays were performed using full-length human TOP2A and TOP2B incubated with the supercoiled pHOT plasmid in the presence of 200 µM of etoposide plus 1, 100, or 200 µM of ICRF193, T60, T637, and T638. Reactions were separated on a DNA gel with ethidium bromide. All experiments were repeated three times, and one representative image was shown. Note: N, nicked DNA; L, linear DNA; and SC, supercoiled DNA.

[2] = test system: salmon sperm DNA; assay: Ethidium bromide displacement assay; assay type: binding; conditions: 100 µg/mL salmon sperm DNA, 2 µg/mL ethidium bromide
Description: (A) Ethidium bromide displacement assays were performed by mixing 100 µg/mL salmon sperm DNA with −/+2 µg/mL ethidium bromide and the indicated compounds. Reactions were subjected to fluorescence emission of 590 nm and excitation of 535 nm. Obtained signals were detected by using the Multimode Microplate Reader (Infinite F500). […] Reactions were subjected to 5–20% LED/excitation power and medium MST power using premium capillaries. Obtained signals were detected by using the Monolith NT.115 system. The change in thermophoresis is expressed as the change in the normalized fluorescence (ΔFnorm). MST assays were repeated with two control compounds, enzalutamide (Enza) and merbarone.

[3] = test system: small cell lung cancer line NCI-H446; assay: NCI-H446 cell growth (Incucyte); conditions: Homo sapiens, NCI-H446, 120 h, read-out: Cell growth inhibition
Description: (§2) (A) K562 cells were treated with 0, 0.5, 1, 5, 10, 15, and 20 uM of T60 or 0, 0.5, 1, 5, 10, 15, 20, 50, and 100 uM of T637 and T638 for 24, 48, or 72 h. […] (B) NCI-H446 small cell lung cancer line and Hela cervical cancer line were treated with 0, 0.5, 1, 5, 10, 15, and 20 uM of T60 or 0, 0.5, 1, 5, 10, 15, 20, 50, and 100 uM of T637 and T638 for five days. Cell growth rates were measured by using Incucyte^TM. (C) K562 cells were treated with 0, 5, 10, 15, and 20 uM of T60, T637, or T638 for 48 h. Cytotoxicity was evaluated by measuring the LDH levels from the culture media. (D) K562 cells were treated with the vehicle or 10–20 µM of etoposide, T60, T637, or T638 for 4 h. Immunoblotting measured p-H2AXγ levels in cells with vinculin as a loading control.

[4] = test system: cervical cancer line Hela; assay: Hela cell growth (Incucyte); conditions: Homo sapiens, 120 h, read-out: Cell growth inhibition
Description: as §2

[5] = target: full-length TOP2B (Homo sapiens, UniProt Q02880); assay: EMSA, full-length TOP2B with 5ZRF DNA oligo; assay type: binding; design: EMSA was performed by purified full-length TOP2A or TOP2B proteins; conditions: 200 µM compound, 300 nM protein, 100 nM oligo
Sequence of full-length TOP2B (Q02880 whole entry): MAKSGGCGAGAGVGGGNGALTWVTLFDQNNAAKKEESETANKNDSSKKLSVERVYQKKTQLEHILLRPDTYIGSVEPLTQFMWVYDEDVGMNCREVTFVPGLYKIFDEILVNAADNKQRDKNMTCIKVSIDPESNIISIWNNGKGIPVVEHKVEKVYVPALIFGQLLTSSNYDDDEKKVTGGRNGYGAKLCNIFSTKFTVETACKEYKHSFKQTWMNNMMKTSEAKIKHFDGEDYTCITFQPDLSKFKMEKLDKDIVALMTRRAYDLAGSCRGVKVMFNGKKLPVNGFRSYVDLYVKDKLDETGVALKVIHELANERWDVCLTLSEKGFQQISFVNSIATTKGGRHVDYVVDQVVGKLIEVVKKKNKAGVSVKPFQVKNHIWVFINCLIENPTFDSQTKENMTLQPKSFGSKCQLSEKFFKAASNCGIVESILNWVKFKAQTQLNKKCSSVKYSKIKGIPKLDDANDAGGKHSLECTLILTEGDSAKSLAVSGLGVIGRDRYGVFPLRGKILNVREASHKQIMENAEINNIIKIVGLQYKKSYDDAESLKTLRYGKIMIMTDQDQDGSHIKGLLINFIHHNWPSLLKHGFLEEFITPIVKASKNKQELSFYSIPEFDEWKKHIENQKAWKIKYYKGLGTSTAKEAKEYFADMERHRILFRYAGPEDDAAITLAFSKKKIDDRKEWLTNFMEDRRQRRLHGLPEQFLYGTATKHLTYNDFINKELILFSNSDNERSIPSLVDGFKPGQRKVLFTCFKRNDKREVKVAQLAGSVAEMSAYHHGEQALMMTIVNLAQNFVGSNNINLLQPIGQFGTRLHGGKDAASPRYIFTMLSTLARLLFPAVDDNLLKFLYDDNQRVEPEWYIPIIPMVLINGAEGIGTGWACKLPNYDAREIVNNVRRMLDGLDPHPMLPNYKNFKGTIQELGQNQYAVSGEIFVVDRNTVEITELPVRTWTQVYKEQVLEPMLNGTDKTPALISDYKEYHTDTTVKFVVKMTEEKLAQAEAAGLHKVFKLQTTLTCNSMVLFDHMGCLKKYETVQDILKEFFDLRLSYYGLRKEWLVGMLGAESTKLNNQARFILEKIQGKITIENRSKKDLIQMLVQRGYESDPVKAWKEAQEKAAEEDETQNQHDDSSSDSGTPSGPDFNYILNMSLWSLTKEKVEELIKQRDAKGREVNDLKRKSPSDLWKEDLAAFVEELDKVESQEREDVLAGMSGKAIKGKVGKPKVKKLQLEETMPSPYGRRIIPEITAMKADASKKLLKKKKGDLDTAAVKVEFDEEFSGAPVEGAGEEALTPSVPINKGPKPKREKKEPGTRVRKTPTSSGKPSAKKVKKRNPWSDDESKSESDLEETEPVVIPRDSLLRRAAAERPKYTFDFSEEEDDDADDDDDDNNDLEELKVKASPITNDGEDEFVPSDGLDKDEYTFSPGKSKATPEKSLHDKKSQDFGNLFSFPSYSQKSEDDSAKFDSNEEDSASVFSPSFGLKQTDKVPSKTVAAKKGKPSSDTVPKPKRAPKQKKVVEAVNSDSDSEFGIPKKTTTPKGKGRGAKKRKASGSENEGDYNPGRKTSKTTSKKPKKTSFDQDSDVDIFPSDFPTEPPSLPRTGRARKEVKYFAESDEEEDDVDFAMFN
Description: as §1

[6] = Crystal formation (precipitation) in cell cultures; assay type: physicochemical; conditions: up to 100 uM
Description: Both T637 and T638 have improved solubility in aqueous solution and culture media compared to T60 (Figure 1). […] When cells are growing in the culture media and treated with T60 at concentrations ≥50 uM for two days, T60 will form crystals, likely due to the altered pH values by the cells that induce T60 precipitation. […] These improvements in solubility allow higher doses of compounds to be used to treat cancer cells to reach maximum tumor suppression.

[7] = target: TOP2A (Homo sapiens, UniProt P11388); assay: Supercoiled plasmid DNA relaxation assay, TOP2A; assay type: biochemical; conditions: 0.01-200 uM, three biological repeats
Sequence of TOP2A (P11388 whole entry): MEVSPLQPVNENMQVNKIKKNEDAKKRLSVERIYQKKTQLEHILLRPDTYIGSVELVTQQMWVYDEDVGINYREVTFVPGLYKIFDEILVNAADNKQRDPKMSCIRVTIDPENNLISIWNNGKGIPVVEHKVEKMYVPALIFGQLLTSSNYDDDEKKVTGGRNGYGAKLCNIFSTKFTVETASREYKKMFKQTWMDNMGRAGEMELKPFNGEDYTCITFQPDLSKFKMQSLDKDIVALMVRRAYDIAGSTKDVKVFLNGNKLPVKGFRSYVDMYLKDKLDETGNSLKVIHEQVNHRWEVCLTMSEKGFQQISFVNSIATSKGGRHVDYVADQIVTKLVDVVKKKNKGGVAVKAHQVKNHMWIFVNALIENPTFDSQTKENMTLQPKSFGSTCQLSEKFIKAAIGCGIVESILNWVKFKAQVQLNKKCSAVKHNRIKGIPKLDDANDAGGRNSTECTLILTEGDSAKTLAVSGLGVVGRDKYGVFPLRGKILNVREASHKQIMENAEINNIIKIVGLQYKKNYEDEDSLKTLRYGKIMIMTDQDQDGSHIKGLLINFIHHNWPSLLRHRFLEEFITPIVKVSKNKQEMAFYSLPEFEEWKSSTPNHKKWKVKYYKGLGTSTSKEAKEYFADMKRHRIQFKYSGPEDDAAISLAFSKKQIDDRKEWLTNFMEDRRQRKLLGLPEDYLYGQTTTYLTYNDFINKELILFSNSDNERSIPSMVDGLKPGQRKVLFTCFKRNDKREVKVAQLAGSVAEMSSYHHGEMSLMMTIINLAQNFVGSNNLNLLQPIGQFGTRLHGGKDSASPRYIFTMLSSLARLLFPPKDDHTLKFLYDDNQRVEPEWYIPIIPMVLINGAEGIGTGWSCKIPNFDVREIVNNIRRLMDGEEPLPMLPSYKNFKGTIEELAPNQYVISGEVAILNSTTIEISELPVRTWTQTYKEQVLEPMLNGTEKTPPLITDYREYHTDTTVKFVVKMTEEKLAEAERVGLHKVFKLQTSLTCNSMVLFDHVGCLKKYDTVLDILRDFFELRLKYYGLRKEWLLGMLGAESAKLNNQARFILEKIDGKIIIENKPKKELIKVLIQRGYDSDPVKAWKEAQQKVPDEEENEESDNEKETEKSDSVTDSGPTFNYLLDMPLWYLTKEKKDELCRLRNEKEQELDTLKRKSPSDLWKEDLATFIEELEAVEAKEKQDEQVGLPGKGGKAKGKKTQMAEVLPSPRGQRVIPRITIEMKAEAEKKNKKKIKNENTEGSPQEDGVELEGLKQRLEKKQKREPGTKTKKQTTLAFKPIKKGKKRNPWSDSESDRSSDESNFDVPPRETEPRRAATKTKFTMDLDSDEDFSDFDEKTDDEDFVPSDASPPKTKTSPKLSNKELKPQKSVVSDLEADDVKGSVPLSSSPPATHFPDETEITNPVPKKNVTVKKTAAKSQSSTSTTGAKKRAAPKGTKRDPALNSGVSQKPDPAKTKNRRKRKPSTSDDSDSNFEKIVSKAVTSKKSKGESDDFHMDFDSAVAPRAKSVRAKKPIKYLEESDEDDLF
Description: Figure 2 T637 and T638 are TOP2A inhibitors. (A) K-DNA decatenation assays and (B) supercoiled plasmid DNA relaxation assays are used to measure TOP2A enzyme activity in the presence of 0.01–200 uM T637 or T638. Three biological repeats were performed with each concentration of the compounds, and the densitometry of the D-DNA bands from (A) and the SC bands from (B) was used to establish an inhibition curve for IC50 calculation.

T1 sequence (P11388 431-1193): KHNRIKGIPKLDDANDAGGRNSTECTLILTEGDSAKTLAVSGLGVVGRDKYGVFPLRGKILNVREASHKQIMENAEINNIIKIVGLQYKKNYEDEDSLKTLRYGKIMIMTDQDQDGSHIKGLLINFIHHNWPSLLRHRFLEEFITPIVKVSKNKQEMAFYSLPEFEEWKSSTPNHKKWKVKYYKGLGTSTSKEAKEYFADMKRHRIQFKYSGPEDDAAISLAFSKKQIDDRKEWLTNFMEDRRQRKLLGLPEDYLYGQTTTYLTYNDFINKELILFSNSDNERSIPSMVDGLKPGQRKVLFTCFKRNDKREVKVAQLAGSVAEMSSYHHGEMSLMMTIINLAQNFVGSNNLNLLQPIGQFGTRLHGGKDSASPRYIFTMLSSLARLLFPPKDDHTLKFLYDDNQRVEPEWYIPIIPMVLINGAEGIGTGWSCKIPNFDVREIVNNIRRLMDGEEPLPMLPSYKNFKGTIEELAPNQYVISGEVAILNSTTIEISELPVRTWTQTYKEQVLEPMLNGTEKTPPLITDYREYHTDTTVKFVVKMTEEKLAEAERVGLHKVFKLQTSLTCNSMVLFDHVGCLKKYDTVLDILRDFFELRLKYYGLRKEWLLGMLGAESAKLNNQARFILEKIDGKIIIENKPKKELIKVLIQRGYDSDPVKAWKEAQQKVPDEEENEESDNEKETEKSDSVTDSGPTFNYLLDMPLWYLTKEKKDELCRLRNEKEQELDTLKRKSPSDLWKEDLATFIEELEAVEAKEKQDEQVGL

For `Nc1cc(Nc2ccccc2)ccc1NC(=O)c1ccc[nH]c1=S` [T638], the “Effect on TOP2A-DNA interaction (FP)” value [1] was “reduced the TOP2A–DNA interaction in a dose-dependent manner”, the “Fluorescence induced by the ethidium bromide/DNA complex reduced by increasing doses (DNA intercalation)” value [2] was “not” and the inhibition at 100 µM [3] was 100%. The inhibition at 100 µM [4] was 100%, the “Block of TOP2B-DNA oligo complex formation (EMSA)” value [5] was “block” and the “Crystal formation in cell cultures, in words” value [6] was “no crystal formation”. For the same compound, the IC50 [7] was 2100 nM.
